Assay results published in US20200306295A1, “METHOD AND DEVICE FOR ANNIHILATION OF Staphylococcus aureus” (priority 2017, published 2020).
≈ marks a conversion by molar mass, not a printed value. Entries after “also recorded” stand apart in the source; their conditions may differ. Like-named read-outs stand apart in the source and are kept apart here.

Columns and labels:
[1] = tested on: MRSA NRS384 (MRSA USA 300); test: MIC by standard broth-dilution method; type: cell-based, S. aureus
Description: For each measurement, three independent replicates were applied.

stationary-phase MRSA [2] = type: cell-based, S. aureus; settings: for fold reduction of lowest concentration completely inhibiting MRSA growth within 18 hours, with laser treatment: 16 min laser stated for tetracycline, 2-fold or larger is synergy (FICI)
Description: To monitor the response of bacteria to laser treatment alone, antibiotic treatment alone, or their combinations, bacterial growth was continuously monitored overnight (18 hours with an interval of 30 min at 37° C.) by measuring optical density at 600 nm (OD600). Depending on the specific assay applied, the bacterial cells were suspended in 100 or 200 μl TSB medium under different treatment schemes (antibiotic alone, laser treatment alone, antibiotic plus laser treatment) with a final concentration of ˜10^5 CFU/ml. Bacterial growth was defined as OD600≥0.1.
Stationary-phase bacterial cells was washed and resuspended in 1×PBS at its original concentration. […] The treated droplet was collected and resuspended into 5 ml TSB (1:1000 dilution) for each group. Corresponding groups without laser treatment were also conducted for comparison. The bacterial suspensions were transferred to a 96-well plate with antibiotics supplemented into with the first row of the 96-well plate for eight two-fold serial dilution starting at a desired antibiotic concentration (e.g. ofloxacin: 2 μg/ml). After serial dilution, bacterial growth within the same well plate was monitored by a plate reader for 18 hours (OD600, 37° C.). The checkerboard assay was used for groups with laser treatment alone or laser plus antibiotic treatment. Two independent experiments of checkerboard assay were performed for each antibiotic with or without laser treatment. Based on the readout of OD600, a heat map was created to evaluate the antibiotic potentiation or synergistic effect enabled by STX photolysis.
Based on the checkerboard results, the fractional inhibitory concentration index (FICI), a synergy evaluation method between two antibiotics, was calculated as below: FICI=MIC of antibiotic A in combination/MIC of antibiotic A alone+MIC of antibiotic B in combination/MIC of antibiotic B alone. The interaction of the two antibiotics was defined as below: synergy if FICI≤0.5, no interaction if 0.5<FICI≤4, antagonism if FICI>4^46. […] Considering this reason, the synergy calculation was simplified as below: FICI=MIC of antibiotic A in combination with laser treatment/MIC of antibiotic A alone with synergy defined by FICI≤0.5.

MRSA = test: microbe, parasite or virus in culture; type: cell-based, S. aureus; settings: for MIC: Staphylococcus aureus, MRSA; for resistance development with laser treatment: 48-day serial passage, sub-MIC antibiotic with 10 min laser
Description: To understand whether laser treatment could cause genotypic or phenotypic change in MRSA, and whether STX photolysis could reduce the resistance development for conventional antibiotics, a serial passage study for each treatment scenario was conducted. The initial generation (Day 1) used in this study was stationary-phase MRSA. The sample was prepared, washed and resuspended in 1×PBS at its original concentration. An aliquot (5 μl) of the MRSA suspension was transferred onto a glass cover slide as a droplet of ˜5 mm in diameter with or without 10 min laser treatment (1 cm diameter illumination area, 120 mW). The droplets were then collected and resuspended into 5 ml of TSB medium (1:1000 dilution) with an estimated cell concentration of 10^5 CFU/ml. To study resistance development or selection induced by laser treatment alone, three groups were included: a group without laser treatment (SPO), a group with laser treatment (SPL1), and another independent group with laser treatment as a duplicate (SPL2). To study resistance development induced by antibiotic treatment alone and laser plus antibiotic treatment, three groups were included for each antibiotic: antibiotic alone-treated group (SPA0), laser plus antibiotic-treated group (SPLA1), and another laser plus antibiotic-treated group as another independent serial passage (SPLA2). For SPO, SPL1, and SPL2, 200 μl of bacterial suspension was directly transferred to each well of a 96-well plate, with three replicates conducted for each group. For SPA0, SPLA1, and SPLA2, 200 μl of bacterial suspension was transferred into the first dilution row of a 96-well plate with supplemented antibiotics at a desired starting concentration, whereas 100 μl of bacterial suspension was transferred to the rest dilution rows. […] Three replicates were applied for each group. These well plates were incubated in a shaker at 37° C. and 200 rpm for 18 hours followed by OD600 measurement by a plate reader. After MICs recording for each group, the well plates were continuously incubated in the shaker for 3 days in total. On Day 4, 200 μl of bacterial sample from each group was collected, washed, and resuspended in 1×PBS at its original concentration used as new inoculum for the next passage following the same protocol as described above. Samples for SPA0, SPLA1, and SPLA2 groups were collected from wells supplemented with sub-MIC antibiotic. Samples for SPO, SPL1, and SPL2 groups were also collected from the well plates. […] Serial passage for all groups were performed for […] with 16 generations in total. Raman spectroscopy was then applied to monitor STX expression level in groups of interest after the entire serial passage experiment. The protocol is detailed as below: 100 μl of ˜400 μl stored bacterial culture was collected, spun down with the supernatant being removed, then resuspended into 5 μl 1×PBS as high-concentration bacterial solution (20 times concentrated). An aliquot (1 μl) was transferred and then sandwiched between two glass cover slides for STX quantification by resonance Raman spectroscopy.

stationary-phase MRSA [3] = test: Time-killing assay in PBS with or without pulsed laser (CFU enumeration); type: cell-based, S. aureus; settings: for synergy of laser treatment with antibiotic against MRSA: 5 min laser plus 10 MIC antibiotic (FIG. 32)
Description: To quantify viable bacterial cells, CFU experiments were performed. 100 μl of sample analyte was transferred into a 96-well plate and then three or four ten-fold serial dilution achieved by transferring 20 μl bacterial culture into 180 μl 1×PBS in the next dilution row. After serial dilution, an aliquot (4 μl) from each well was spotted onto sterile TSA plates. After incubating the plates overnight (˜18 hours) at 37° C., the colonies were enumerated, and cell number was calculated in CFU/ml. For each CFU enumeration experiment, three independent replicates were applied.
Stationary-phase MRSA was prepared, washed and resuspended in 1×PBS at two-times of its original concentration. […] After laser treatment, the droplets were resuspended into 200 μl of 1×PBS (1:40 dilution) supplemented with antibiotics at different concentrations in a mini centrifuge tube (89166-278, VWR international). For example, daptomycin was added into MRSA solution after laser treatment at desired concentration of 0×MIC, 5×MIC, 10×MIC, 30×MIC, or 100×MIC supplemented with 50 μg/ml CaCl2). Corresponding groups without laser treatment were also conducted for comparison. These tubes were incubated within an orbital incubator (37° C., 200 rpm) for different incubation time. At each specific time point, 40 μl of aliquot from each group was transferred to a 96-well plate for follow-up CFU enumerating assay. In the case of tobramycin, additional antibiotic washing by 1×PBS was performed before the CFU experiment to avoid antibiotic interference. For time-killing assay in fresh human whole blood, similar protocol was followed as above, except that 1×PBS was replaced by fresh human whole blood and the initial stationary-phase MRSA solution was diluted by ten times with a concentration of ˜10^7 CFU/ml.

stationary-phase MRSA [4] = test: Gentamicin-Texas red intracellular uptake assay; type: cell-based, S. aureus; settings: gentamicin conjugated with Texas red, confocal fluorescence
Description: To study laser-mediated intracellular uptake of gentamicin (a representative of aminoglycoside), gentamicin was conjugated with a fluorescent dye, Texas-red, to form gentamicin-Texas red. Briefly, 10 mg of gentamicin was dissolved into 1 ml of 0.1 M sodium bicarbonate buffer (58761-500ML, Sigma Aldrich). 10 mg/ml of Texas red-X succinimidyl ester (T6134, Thermo Fisher Scientific) was added to the gentamicin solution slowly drop by drop. Then the mixed solution was stirred at room temperature for 1 hour. Gentamicin-Texas red was purified through sufficient dialysis against 0.1 M sodium bicarbonate buffer in a dialysis sack (Slide-A-Lyzer G2 Dialysis Cassettes, 2K MWCo, 15 mL, 87719, Thermao Fisher Scientific), and harvested through lyophilization (Labconco). […] After treatment, bacterial droplet was collected into 985 μl of sterile 1×PBS, and then add 10 μl of 1 mg/ml Gentamicin-Texas red. Mixed solution was incubated at 37° C. for 30 min with a shaking speed of 200 rpm. After incubation, MRSA pellets were harvested through washing with sterile 1×PBS twice and then fixed with 10% formalin. […] Quantitative analysis of fluorescence emission intensity from individual MRSA cells was conducted and allocated among groups with different laser treatment time.

[5] = read-out: MIC after 48-day serial passage, sub-MIC antibiotic alone

CC[C@H]1OC(=O)[C@H](C)[C@@H](O[C@H]2C[C@@](C)(OC)[C@@H](O)[C@H](C)O2)[C@H](C)[C@@H](O[C@@H]2O[C@H](C)C[C@H](N(C)C)[C@H]2O)[C@](C)(O)C[C@@H](C)C(=O)[C@H](C)[C@@H](O)[C@]1(C)O [Erythromycin]
MIC ([1]; Staphylococcus aureus): 64 µg/mL (≈ 87.2 µM)

CC1COc2c(N3CCN(C)CC3)c(F)cc3c(=O)c(C(=O)O)cn1c23 (stereo not drawn) [Ofloxacin, ofloxacin]
fold reduction of lowest concentration completely inhibiting MRSA growth within 18 hours, with laser treatment (stationary-phase MRSA [2]): 2 fold
MIC (MRSA; [5]): 128 µg/mL (≈ 354 µM)
MIC ([1]; Staphylococcus aureus): 0.5 µg/mL (≈ 1.38 µM)

Cc1onc(-c2ccccc2)c1C(=O)N[C@@H]1C(=O)N2[C@@H]1SC(C)(C)[C@@H]2C(=O)O [Oxacillin, oxacillin]
antibiotic concentration re-sensitized by laser treatment (stationary-phase MRSA [2]; laser treatment plus oxacillin): 1 µg/mL
synergy of laser treatment with antibiotic against MRSA (stationary-phase MRSA [3]): synergy; also recorded: very obvious synergy
MIC ([1]; Staphylococcus aureus, MRSA NRS384 (MRSA USA 300), N = 3, read-out: MIC): 8 µg/mL (≈ 19.9 µM)

CO/N=C(\C(=O)N[C@@H]1C(=O)N2C(C(=O)O)=C(COC(C)=O)CS[C@H]12)c1csc(N)n1 [cefotaxime]
synergy of laser treatment with antibiotic against MRSA (stationary-phase MRSA [3]): very obvious synergy
synergy of laser treatment with antibiotic against MRSA (stationary-phase MRSA [3]; listed as cetotaxine): synergy

O=C(O)c1cn(C2CC2)c2cc(N3CCNCC3)c(F)cc2c1=O [ciprofloxacin]
synergy of laser treatment with antibiotic against MRSA (stationary-phase MRSA [3]): synergy; also recorded: very obvious synergy
resistance development with laser treatment (MRSA): no resistance
MIC (MRSA; [5]): 128 µg/mL (≈ 386 µM)
MIC (MRSA; read-out: MIC over/after 48-day serial passage, sub-MIC antibiotic plus 10 min laser treatment): ≤ 2 µg/mL

CC(=O)NC[C@H]1CN(c2ccc(N3CCOCC3)c(F)c2)C(=O)O1 [linezolid]
fold reduction of lowest concentration completely inhibiting MRSA growth within 18 hours, with laser treatment (stationary-phase MRSA [2]): 8 fold
resistance development with laser treatment (MRSA): resistance inhibition

CN(C/C=C/c1ccccc1)Cc1cccc2ccccc12 [naftifine]
second order bleaching constant τ2 (STX in MRSA; naftifine-treated MRSA, τ1=∞, wild-type MRSA 0.16±0.01 s): 0.39 ± 0.07 s
τ2 of naftifine-treated MRSA relative to wild-type MRSA (STX in MRSA; times longer than wild-type MRSA): 2.5 times

NC[C@H]1O[C@H](O[C@H]2[C@H](O)[C@@H](O[C@H]3O[C@H](CO)[C@@H](O)[C@H](N)[C@H]3O)[C@H](N)C[C@@H]2N)[C@H](N)C[C@@H]1O [tobramycin]
resistance development with laser treatment (MRSA): resistance inhibition

gentamicin
synergy of laser treatment with antibiotic against MRSA (stationary-phase MRSA [3]): synergy; also recorded: very obvious synergy
MRSA reduction (stationary-phase MRSA [3]; pulsed laser treatment combined with antibiotic at 10 MIC (FIG. 32)): more than 2 log
resistance development with laser treatment (MRSA): Delayed resistance development
intracellular uptake with laser treatment vs untreated (stationary-phase MRSA [4]): significantly more
MIC ([1]; MRSA NRS384 (MRSA USA 300), N = 3): 8 µg/mL

ramoplanin
resistance development with laser treatment (MRSA): decreased resistance development is not shown
